Results taken from US11207312B2, “Metallo-beta-lactamase inhibitors and methods of use thereof” (priority 2017, dated 2021).

Experiments:
VIM-2 = VIM-2 (Escherichia coli, UniProt Q5U7L7); experiment: biochemical; conditions: CCF2-FA fluorescence assay; read-out: VIM2 IC50
[1] = test system: P. aeruginosa MB9799 (efflux-, IMP-1 plasmid); format: cell-based, Pseudomonas aeruginosa; conditions: efflux − (MB9799) strain; imipenem at 2 μg/mL; in the presence of a class A, C, D serine β-lactamase inhibitor closely related to relebactam
Summary of the method: (§1)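 Isogenic P. aeruginosa PAO1 strains (efflux+ and multiple-efflux-pump-disrupted) carrying plasmid IMP-1, with inducible AmpC, tested by broth microdilution. Imipenem and/or ceftazidime fixed, usually at CLSI breakpoint, plus fixed class A/C β-lactamase inhibitor; titrated MBL inhibitor concentration restoring susceptibility recorded and compared between strains as efflux fold difference.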

[2] = test system: Serratia marcescens expressing IMP-1 (CL5741); format: cell-based; conditions: with imipenem 1 μg/ml; 95% inhibition of bacterial growth
Summary of the method: (§2)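 Read-out is absorbance after 22–24 h at 35 °C, with MITC95 taken as the lowest inhibitor concentration that, alongside imipenem at 1 μg/ml, suppresses 95% of bacterial growth. Inocula came from saline-suspended colonies diluted 1:100 into 1.1× CAMHB.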

[3] = test system: Klebsiella pneumoniae expressing VIM-1 (IHMA599644); format: cell-based; conditions: with imipenem 1 μg/ml; 95% inhibition of bacterial growth
Summary of the method: as §2

[4] = test system: Escherichia coli expressing NDM-1 (CLB30016); format: cell-based; conditions: with imipenem 1 μg/ml; 95% inhibition of bacterial growth
Summary of the method: as §2

IMP-1 = IMP-1 (Serratia marcescens, UniProt P52699); experiment: biochemical; conditions: CCF2-FA fluorescence assay, 2 hours at 25° C.; read-out: IMP1 IC50
Summary of the method: (§3)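 Each enzyme (final 1 pM NDM-1, 2 pM IMP-1, 30 pM VIM-1) was incubated with test inhibitor (20 μM to 0.00063 μM) and 1.25 μM CCF2-FA for 2 hours at 25° C in zinc-supplemented phosphate buffer, pH 7. Fluorescence at 460 nm was then read and IC50 fitted with four parameters.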

VIM-1 = VIM-1 (Pseudomonas aeruginosa (strain ATCC 15692 / DSM 22644 / CIP 104116 / JCM 14847 / LMG 12228 / 1C / PRS 101 / PAO1), UniProt A0A0F7KYQ8); experiment: biochemical; conditions: CCF2-FA fluorescence assay, 2 hours at 25° C.; read-out: VIM1 IC50
Summary of the method: as §3

NDM-1 = NDM-1 (Klebsiella pneumoniae, UniProt C7C422); experiment: biochemical; format: biochemical; conditions: CCF2-FA fluorescence assay, 2 hours at 25° C.
Summary of the method: as §3

[5] = test system: P. aeruginosa MB9798 (efflux+, IMP-1 plasmid); conditions: for MB9798 MITC95 P. aeruginosa uM Efflux WT: efflux + (MB9798) strain, imipenem at 2 μg/mL, in the presence of a class A, C, D serine β-lactamase inhibitor closely related to relebactam; for Efflux ratio: fold difference between efflux+ (MB9798) and efflux− (MB9799) strains
Summary of the method: as §1

Chain of NDM-1 (C7C422 whole entry, looked up, species assumed): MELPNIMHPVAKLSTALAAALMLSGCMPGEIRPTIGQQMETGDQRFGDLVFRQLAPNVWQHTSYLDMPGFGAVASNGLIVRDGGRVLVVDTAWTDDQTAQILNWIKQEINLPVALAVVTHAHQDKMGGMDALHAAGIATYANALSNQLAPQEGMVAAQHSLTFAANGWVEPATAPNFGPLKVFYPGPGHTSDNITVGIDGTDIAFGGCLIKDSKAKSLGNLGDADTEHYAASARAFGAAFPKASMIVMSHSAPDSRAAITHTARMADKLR
Chain of IMP-1 (P52699 whole entry, looked up, species assumed): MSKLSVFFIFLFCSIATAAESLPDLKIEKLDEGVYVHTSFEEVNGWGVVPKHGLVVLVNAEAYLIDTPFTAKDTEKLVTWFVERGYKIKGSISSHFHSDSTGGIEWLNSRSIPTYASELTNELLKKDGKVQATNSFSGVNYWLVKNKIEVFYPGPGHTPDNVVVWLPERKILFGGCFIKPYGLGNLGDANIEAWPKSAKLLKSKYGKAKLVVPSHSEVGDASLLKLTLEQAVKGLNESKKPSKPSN

SMILES	IC50 (VIM-2)	MB9799 MITC95 P. aeruginosa uM Efflux Mutant [1]	CL5741 S. marcescens MITC95 IMP [2]	IHMA599644 K. pneumoniae MITC95 VIM [3]	CLB30016 E. coli MITC95 NDM [4]	IC50 (IMP-1)	IC50 (VIM-1)	IC50 (NDM-1)	MB9798 MITC95 P. aeruginosa uM Efflux WT [5]	Efflux ratio [5]
NC[C@@H](O)CNS(=O)(=O)c1ccc(N[C@H]2C[C@@H](N)C2)c(-c2nnn[nH]2)c1S(N)(=O)=O [Example 143, N1-((R)-3-amino-2-hydroxypropyl)-4-(((1s,3S)-3-aminocyclobutyl)amino)-3-(1H-tetrazol-5-yl)benzene-1,2-disulfonamide]	200 nM	3.13 µM	1.56 µM	12.50 µM	1.56 µM	70.4 nM	100 nM	111 nM	6.25 µM	2.00
NCCC1CN(c2ccc(S(=O)(=O)NC[C@H](O)CN)c(S(N)(=O)=O)c2-c2nn[nH]n2)C1 [Example 144, (R)-N1-(3-amino-2-hydroxypropyl)-4-(3-(2-aminoethyl)azetidin-1-yl)-3-(2H-tetrazol-5-yl)benzene-1,2-disulfonamide]	200 nM	3.13 µM	6.25 µM	3.13 µM	3.13 µM	89.6 nM	4.23 nM	111 nM	12.50 µM	4.00
NCCC(=O)N1CCN(c2ccc(S(=O)(=O)NC[C@H](O)CN)c(S(N)(=O)=O)c2-c2nn[nH]n2)CC1 [Example 145, (R)—N1-(3-amino-2-hydroxypropyl)-4-(4-(3-aminopropanoyl)piperazin-1-yl)-3-(2H-tetrazol-5-yl)benzene-1,2-disulfonamide]	8.32 nM	0.78 µM	0.78 µM	1.56 µM	0.39 µM	4.7 nM	0.46 nM	1.68 nM	0.78 µM	1.00
NC[C@@H](O)CNS(=O)(=O)c1ccc(N2CCN(CCO)C(=O)C2)c(-c2nn[nH]n2)c1S(N)(=O)=O [Example 146, (R)-N1-(3-amino-2-hydroxypropyl)-4-(4-(2-hydroxyethyl)-3-oxopiperazin-1-yl)-3-(2H-tetrazol-5-yl)benzene-1,2-disulfonamide]	1.77 nM	1.56 µM	3.13 µM	6.25 µM	1.56 µM	2.25 nM	0.31 nM	2.32 nM	1.56 µM	1.00
NCCN1CCN(c2ccc(S(=O)(=O)NC[C@H](O)CN)c(S(N)(=O)=O)c2-c2nn[nH]n2)CC1=O [Example 147, (R)-N1-(3-amino-2-hydroxypropyl)-4-(4-(2-aminoethyl)-3-oxopiperazin-1-yl)-3-(2H-tetrazol-5-yl)benzene-1,2-disulfonamide]	56.2 nM	0.78 µM	0.78 µM	1.56 µM	0.39 µM	39.6 nM	0.28 nM	27 nM	3.13 µM	4.00
NS(=O)(=O)c1c(S(=O)(=O)N[C@@H]2CCNC2)ccc(N2CCCC(O)C2=O)c1-c1nn[nH]n1 (stereo partly drawn) [Example 148, 4-(3-hydroxy-2-oxopiperidin-1-yl)-N1-((R)-pyrrolidin-3-yl)-3-(2H-tetrazol-5-yl)benzene-1,2-disulfonamide]	1.5 nM	1.56 µM	1.56 µM	3.13 µM	0.39 µM	28.1 nM	0.35 nM	0.76 nM	3.13 µM	2.00
